{"source": "paper PMC9305971", "about": "“Development of [^18F]AmBF3 Tetrazine for Radiolabeling of Peptides: Preclinical Evaluation and PET Imaging of [^18F]AmBF3-PEG7-Tyr^3-Octreotide in an AR42J Pancreatic Carcinoma Model” (Bioconjugate Chemistry, 2022)", "key": {"[1]": {"assay": "Distribution of radioactivity in blood components after i.v. administration", "type": "in vivo, mice", "protocol": "Whole blood from mice were extracted during ex vivo studies, using cardiac puncture. The sample was applied in a microtube containing 1% heparin solution in 0.9% NaCl (aq.) (2 μL); the sample was centrifuged (1000g, 10 min), the total radioactivity in the sample was measured with a γ counter, the supernatant was separated from the pellet (RBC containing fraction), and cold ACN (500 μL) was added. The sample was centrifuged (10,000g, 5 min) to remove the free fraction from the precipitated protein-containing pellet. The pellet (protein-bound fraction) and the supernatant (free fraction) were measured with a γ counter, and a sample (100 μL) was injected into HPLC and spotted (4 μL) on a TLC plate (radio-TLC, TLC silica gel 60 F254, ACN/water 80:20)."}, "[2]": {"assay": "Dosimetry from dynamic PET, extrapolated to adult humans (OLINDA/EXM)", "type": "in vivo, Rj:NMRI-Foxn1^nu/nu mice", "settings": "extrapolated to adult human", "protocol": "Dosimetry of [^18F]15 was calculated from the acquired PET/CT imaging data with Molecubes PET (β-CUBE) coupled with a CT (X-CUBE) (Ghent, Belgium). Regions of interest were drawn on source organs, namely, the heart, kidneys, liver, and lungs. Time–activity curves (TAC) were converted from mouse to human time −activity curves with the following equation [drawing 1] where morgan,h and WBh are the organ and whole-body weights for human, respectively. Mass morgan,m and WBm are the organ weight and the whole-body weight for mouse, respectively. Time–activity curves were normalized to 1 MBq injection, and the physical decay correction was removed. After this, the TAC’s were extrapolated into 3000 min, which corresponds in practice to infinity. Numbers of disintegrations in source organs are defined by integrating TAC from time 0 to 3000 min, and this value is input for OLINDA/EXM (version 2.1, Vanderbilt University, 2012) dosimetry software, where ICRP 89 reference adult male (73 kg) and ICRP 103 radiation weighting factors were used. Absorbed doses to each target organ are given in units mGy/MBq, and the effective dose is in units mSv/MBq.\nTable S3. Dosimetry calculations.\nResults after intravenous administration of [18F]15 from OLINDA/EXM (Version 2.1, Vanderbilt University, 2012), where ICRP 89 reference adult male (73 kg) and ICRP 103 radiation weighting factors were used. Absorbed doses to each target organ is given in units mGy/MBq and the effective dose in units mSv/MBq. The difference in radiation burden based on baseline (non-block) and blocked mice is negligible.\nTarget organ Baseline Avg. Baseline Std. Blocked Avg. Blocked Std. […]"}, "[3]": {"settings": "60 min post injection, blocked with octreotide"}}, "note": "Like-named read-outs stand apart in the source and are kept apart here."}
{"molecule": "C[C@@H](O)[C@@H]1NC(=O)[C@H](CCCCN)NC(=O)[C@@H](Cc2c[nH]c3ccccc23)NC(=O)[C@H](Cc2ccc(O)cc2)NC(=O)[C@@H](NC(=O)[C@@H](Cc2ccccc2)NC(=O)CCOCCOCCOCCOCCON=Cc2ccc(CNC(=O)OC3CCCc4cnnc(-c5ccc(CC(=O)NCC[N+](C)(C)C[B-](F)(F)F)cc5)c4CC3)cc2)CSSC[C@@H](C(=O)N[C@H](CO)[C@@H](C)O)NC1=O", "note": "(some centres unmarked) [[^18F]14]", "values": [{"measurement": "protein bound fraction", "setting": "[1]; 5 min post injection", "value": 5.5, "unit": "%"}, {"measurement": "radioactivity bound to red blood cells", "setting": "[1]; 5 min post injection", "value": 22, "unit": "%"}, {"measurement": "radioactivity bound to red blood cells", "setting": "[1]; 5 min post injection, listed as [18F]14", "value": 21.6, "unit": "%"}, {"measurement": "protein bound fraction", "setting": "[1]; 60 min post injection", "value": 7.00, "unit": "%"}, {"measurement": "radioactivity bound to red blood cells", "setting": "[1]; 60 min post injection", "value": 25, "unit": "%"}, {"measurement": "protein bound fraction", "setting": "[1]; [3]", "value": 14.6, "unit": "%"}, {"measurement": "radioactivity bound to red blood cells", "setting": "[1]; [3]", "value": "29.7 ± 2.9", "unit": "%"}, {"measurement": "radioactivity bound to red blood cells", "setting": "[1]; 60 min post injection, blocked with octreotide, listed as [18F]14", "value": 29.7, "unit": "%"}, {"measurement": "radioactivity bound to red blood cells", "setting": "[1]; 60 min post injection, listed as [18F]14", "value": 24.5, "unit": "%"}, {"measurement": "fraction unbound at 5 min", "setting": "[1]; mouse, whole blood, intravenous, 5 min post injection, read-out: free fraction", "value": "0.729 ± 0.051"}, {"measurement": "fraction unbound at 60 min", "setting": "[1]; mouse, whole blood, intravenous, 60 min post injection, blocked with octreotide, read-out: free fraction", "value": "0.557 ± 0.114"}, {"measurement": "fraction unbound at 60 min", "setting": "[1]; mouse, whole blood, intravenous, 60 min post injection, read-out: free fraction", "value": "0.685 ± 0.053"}]}
{"molecule": "C[C@@H](O)[C@@H]1NC(=O)[C@H](CCCCN)NC(=O)[C@@H](Cc2c[nH]c3ccccc23)NC(=O)[C@H](Cc2ccc(O)cc2)NC(=O)[C@@H](NC(=O)[C@@H](Cc2ccccc2)NC(=O)CCOCCOCCOCCOCCON=Cc2ccc(C(=O)NCCOCCOCCOCCNC(=O)OC3CCCc4cnnc(-c5ccc(CC(=O)NCC[N+](C)(C)C[B-](F)(F)F)cc5)c4CC3)cc2)CSSC[C@@H](C(=O)N[C@H](CO)[C@@H](C)O)NC1=O", "note": "(some centres unmarked) [[^18F]15]", "values": [{"measurement": "absorbed dose, adrenals", "setting": "[2]; baseline", "value": "0.0190 ± 0.0008", "unit": "mGy/MBq"}, {"measurement": "absorbed dose, brain", "setting": "[2]; baseline", "value": 0.0102, "unit": "mGy/MBq"}, {"measurement": "absorbed dose, esophagus", "setting": "[2]; baseline", "value": 0.0129, "unit": "mGy/MBq"}, {"measurement": "absorbed dose, eyes", "setting": "[2]; baseline", "value": 0.0102, "unit": "mGy/MBq"}, {"measurement": "absorbed dose, gallbladder wall", "setting": "[2]; baseline", "value": "0.0194 ± 0.0011", "unit": "mGy/MBq"}, {"measurement": "absorbed dose, heart wall", "setting": "[2]; baseline", "value": 0.0148, "unit": "mGy/MBq"}, {"measurement": "absorbed dose, kidneys", "setting": "[2]; baseline", "value": "0.0366 ± 0.0016", "unit": "mGy/MBq"}, {"measurement": "absorbed dose, left colon", "setting": "[2]; baseline", "value": 0.0143, "unit": "mGy/MBq"}, {"measurement": "absorbed dose, lungs", "setting": "[2]; baseline", "value": 0.0109, "unit": "mGy/MBq"}, {"measurement": "absorbed dose, osteogenic cells", "setting": "[2]; baseline", "value": 0.0120, "unit": "mGy/MBq"}, {"measurement": "absorbed dose, pancreas", "setting": "[2]; baseline", "value": "0.0156 ± 0.0002", "unit": "mGy/MBq"}, {"measurement": "absorbed dose, prostate", "setting": "[2]; baseline", "value": 0.0135, "unit": "mGy/MBq"}, {"measurement": "absorbed dose, rectum", "setting": "[2]; baseline", "value": 0.0136, "unit": "mGy/MBq"}, {"measurement": "absorbed dose, red marrow", "setting": "[2]; baseline", "value": 0.0113, "unit": "mGy/MBq"}, {"measurement": "absorbed dose, right colon", "setting": "[2]; baseline", "value": 0.0151, "unit": "mGy/MBq"}, {"measurement": "absorbed dose, salivary glands", "setting": "[2]; baseline", "value": 0.0118, "unit": "mGy/MBq"}, {"measurement": "absorbed dose, small intestine", "setting": "[2]; baseline", "value": 0.0144, "unit": "mGy/MBq"}, {"measurement": "absorbed dose, spleen", "setting": "[2]; baseline", "value": 0.0137, "unit": "mGy/MBq"}, {"measurement": "absorbed dose, stomach wall", "setting": "[2]; baseline", "value": 0.0141, "unit": "mGy/MBq"}, {"measurement": "absorbed dose, testes", "setting": "[2]; baseline", "value": 0.0112, "unit": "mGy/MBq"}, {"measurement": "absorbed dose, thymus", "setting": "[2]; baseline", "value": 0.0122, "unit": "mGy/MBq"}, {"measurement": "absorbed dose, thyroid", "setting": "[2]; baseline", "value": 0.0118, "unit": "mGy/MBq"}, {"measurement": "absorbed dose, total body", "setting": "[2]; baseline", "value": 0.0121, "unit": "mGy/MBq"}, {"measurement": "absorbed dose, urinary bladder wall", "setting": "[2]; baseline", "value": "0.0134 ± 0.0003", "unit": "mGy/MBq"}, {"measurement": "effective dose", "setting": "[2]; baseline", "value": 0.0112, "unit": "mSv/MBq"}, {"measurement": "absorbed dose, adrenals", "setting": "[2]; baseline, listed as [18F]15", "value": 0.0190, "unit": "mGy/MBq"}, {"measurement": "absorbed dose, gallbladder wall", "setting": "[2]; baseline, listed as [18F]15", "value": 0.0194, "unit": "mGy/MBq"}, {"measurement": "absorbed dose, kidneys", "setting": "[2]; baseline, listed as [18F]15", "value": 0.0366, "unit": "mGy/MBq"}, {"measurement": "absorbed dose, liver", "setting": "[2]; baseline, listed as [18F]15", "value": 0.0334, "unit": "mGy/MBq"}, {"measurement": "absorbed dose, pancreas", "setting": "[2]; baseline, listed as [18F]15", "value": 0.0156, "unit": "mGy/MBq"}, {"measurement": "absorbed dose, urinary bladder wall", "setting": "[2]; baseline, listed as [18F]15", "value": 0.0134, "unit": "mGy/MBq"}, {"measurement": "absorbed dose, adrenals", "setting": "[2]; blocked", "value": "0.0185 ± 0.0001", "unit": "mGy/MBq"}, {"measurement": "absorbed dose, brain", "setting": "[2]; blocked", "value": 0.0103, "unit": "mGy/MBq"}, {"measurement": "absorbed dose, esophagus", "setting": "[2]; blocked", "value": 0.0129, "unit": "mGy/MBq"}, {"measurement": "absorbed dose, eyes", "setting": "[2]; blocked", "value": 0.0103, "unit": "mGy/MBq"}, {"measurement": "absorbed dose, gallbladder wall", "setting": "[2]; blocked", "value": "0.0190 ± 0.0011", "unit": "mGy/MBq"}, {"measurement": "absorbed dose, heart wall", "setting": "[2]; blocked", "value": 0.0150, "unit": "mGy/MBq"}, {"measurement": "absorbed dose, kidneys", "setting": "[2]; blocked", "value": "0.0337 ± 0.0043", "unit": "mGy/MBq"}, {"measurement": "absorbed dose, left colon", "setting": "[2]; blocked", "value": 0.0144, "unit": "mGy/MBq"}, {"measurement": "absorbed dose, liver", "setting": "[2]; blocked", "value": "0.0313 ± 0.0040", "unit": "mGy/MBq"}, {"measurement": "absorbed dose, lungs", "setting": "[2]; blocked", "value": 0.0106, "unit": "mGy/MBq"}, {"measurement": "absorbed dose, osteogenic cells", "setting": "[2]; blocked", "value": 0.0121, "unit": "mGy/MBq"}, {"measurement": "absorbed dose, pancreas", "setting": "[2]; blocked", "value": "0.0154 ± 0.0001", "unit": "mGy/MBq"}, {"measurement": "absorbed dose, prostate", "setting": "[2]; blocked", "value": 0.0136, "unit": "mGy/MBq"}, {"measurement": "absorbed dose, rectum", "setting": "[2]; blocked", "value": 0.0137, "unit": "mGy/MBq"}, {"measurement": "absorbed dose, red marrow", "setting": "[2]; blocked", "value": 0.0114, "unit": "mGy/MBq"}, {"measurement": "absorbed dose, right colon", "setting": "[2]; blocked", "value": 0.0150, "unit": "mGy/MBq"}, {"measurement": "absorbed dose, salivary glands", "setting": "[2]; blocked", "value": 0.0119, "unit": "mGy/MBq"}, {"measurement": "absorbed dose, small intestine", "setting": "[2]; blocked", "value": 0.0145, "unit": "mGy/MBq"}, {"measurement": "absorbed dose, spleen", "setting": "[2]; blocked", "value": 0.0136, "unit": "mGy/MBq"}, {"measurement": "absorbed dose, stomach wall", "setting": "[2]; blocked", "value": 0.0141, "unit": "mGy/MBq"}, {"measurement": "absorbed dose, testes", "setting": "[2]; blocked", "value": 0.0113, "unit": "mGy/MBq"}, {"measurement": "absorbed dose, thymus", "setting": "[2]; blocked", "value": 0.0122, "unit": "mGy/MBq"}, {"measurement": "absorbed dose, thyroid", "setting": "[2]; blocked", "value": 0.0119, "unit": "mGy/MBq"}, {"measurement": "absorbed dose, total body", "setting": "[2]; blocked", "value": 0.0121, "unit": "mGy/MBq"}, {"measurement": "absorbed dose, urinary bladder wall", "setting": "[2]; blocked", "value": "0.0135 ± 0.0000", "unit": "mGy/MBq"}, {"measurement": "effective dose", "setting": "[2]; blocked", "value": 0.011, "unit": "mSv/MBq"}, {"measurement": "absorbed dose, adrenals", "setting": "[2]; blocked, listed as [18F]15", "value": 0.0185, "unit": "mGy/MBq"}, {"measurement": "absorbed dose, gallbladder wall", "setting": "[2]; blocked, listed as [18F]15", "value": 0.0190, "unit": "mGy/MBq"}, {"measurement": "absorbed dose, kidneys", "setting": "[2]; blocked, listed as [18F]15", "value": 0.0337, "unit": "mGy/MBq"}, {"measurement": "absorbed dose, liver", "setting": "[2]; blocked, listed as [18F]15", "value": 0.0313, "unit": "mGy/MBq"}, {"measurement": "absorbed dose, pancreas", "setting": "[2]; blocked, listed as [18F]15", "value": 0.0154, "unit": "mGy/MBq"}, {"measurement": "absorbed dose, urinary bladder wall", "setting": "[2]; blocked, listed as [18F]15", "value": 0.0135, "unit": "mGy/MBq"}, {"measurement": "absorbed dose, all organs", "setting": "[2]", "value": "below 0.04 mGy/MBq"}, {"measurement": "absorbed dose, all other organs apart from the kidneys and liver", "setting": "[2]", "value": "≤ 0.02", "unit": "mGy/MBq"}]}
